Reference: article PMC10974084, “Combination of Betulinic Acid Fragments and Carbonic Anhydrase Inhibitors—A New Drug Targeting Approach” (Pharmaceutics, 2024)
Like-named read-outs stand apart in the source and are kept apart here.

Columns and labels:
A375 melanoma cells = test: SRB cytotoxicity assay, A375; type: cell-based; conditions: Homo sapiens, read-out: IC50 A375
Protocol: (§1) All of the compounds were dissolved in dimethyl sulfoxide (DMSO) to achieve a 20 mM stock solution. Cells were seeded in cell culture flasks 24 h before treatment. The treatment was performed for 24 h.
(§2) The cytotoxicity of the drugs was determined in 2D tumor models using sulforhodamine B (SRB) assays. Treatment started 24 h after seeding the tumor cells in 96-well plates as previously described.

MDA-MB-231 spheroids = test: Spheroid cytotoxicity assay (luciferase), MDA-MB-231; type: cell-based, human; conditions: read-out: IC50 MDA-MB-231 spheroids
Protocol: (§3) To determine cytotoxicity in the 3D tumor models, spheroid cytotoxicity assays were performed as previously described. […] For generation of single tumor spheroids, tumor cells resuspended in culture medium were seeded into 96-well plates, which were coated before with 0.7% agarose (SeaKem® GTG™ Agarose, Lonza, Basel, Switzerland). After the formation of spheroids (48 h), they were treated with serial dilutions of compounds. Measurements of luciferase activity were performed on day 7, after supplementation with D-luciferin (Perkin Elmer, Rodgau, Germany), on a Tecan Spark microplate reader (Tecan, Männedorf, Switzerland). Generation of dose-response curves and calculation of IC50 values including standard deviations were accomplished using GraphPad Prism8.
(§4) Since the tumor cells stably express luciferase, analysis of spheroid growth and response to therapy is accomplished by measurement of bioluminescent signal intensity.

[1] = system: MCF-7 breast cancer cells; test: SRB cytotoxicity assay, MCF-7; type: cell-based; conditions: Homo sapiens, read-out: IC50 MCF-7
Protocol: as §1, §2

Hs578T spheroids = test: Spheroid cytotoxicity assay (luciferase), Hs578T; type: cell-based, human; conditions: for IC50: read-out: IC50 Hs578T spheroids
Protocol: as §3, §4

[2] = target: recombinant human carbonic anhydrase IX (Homo sapiens, UniProt Q16790); test: hCA IX esterase assay with p-nitrophenyl acetate
Protocol: In this measurement, the enzymatically catalyzed hydrolysis of p-nitrophenyl acetate to p-nitrophenol was investigated. […] This was followed by measurement of the v-S-characteristics with inhibitor. […] For each run, 2 experimental series (biological replicate) were prepared simultaneously and measured for 10 min at a measurement interval of 8 s, also as a two-fold determination (technical replicate). […] The resulting reaction velocities, calculated from a calibration curve with p-nitrophenole under the same conditions, were plotted against the substrate concentration. The kinetic evaluation for competitive inhibition was then performed with the program GraphPad Prism.

[3] = system: A2780 ovarian cancer cells; test: SRB cytotoxicity assay, A2780; type: cell-based; conditions: Homo sapiens, read-out: IC50 A2780
Protocol: as §1, §2

[4] = system: tumor cell lines (2D and 3D tumor models); test: Cytotoxicity summarised across tumor models; type: cell-based; conditions: Homo sapiens, read-out: cytotoxicity range in 2D and 3D tumor models
Protocol: as §2
To determine cytotoxicity in the 3D tumor models, spheroid cytotoxicity assays were performed as previously described. The luciferase-expressing, breast cancer cell lines MDA-MB-231 and Hs578T and derived spheroids were cultivated in RPMI medium (Sigma-Aldrich, Taufkirchen, Germany) containing 10% fetal bovine serum (BioWest, Nuaillé, France) and […] penicillin/streptomycin (Sigma-Aldrich) at 37 °C/5% CO2 in a humid atmosphere. For generation of single tumor spheroids, tumor cells resuspended in culture medium were seeded into 96-well plates, which were coated before with 0.7% agarose (SeaKem® GTG™ Agarose, Lonza, Basel, Switzerland). After the formation of spheroids (48 h), they were treated with serial dilutions of compounds. Measurements of luciferase activity were performed on day 7, after supplementation with D-luciferin (Perkin Elmer, Rodgau, Germany), on a Tecan Spark microplate reader (Tecan, Männedorf, Switzerland). Generation of dose-response curves and calculation of IC50 values including standard deviations were accomplished using GraphPad Prism8.

MCF-7 cells [5] = test: Annexin V / propidium iodide assay, MCF-7; type: cell-based, human; conditions: double the IC50 concentration
Protocol: The Annexin V assays were performed as previously described.
Compounds 3, 5, and 9 were used to study cell death mechanisms and cell cycle analysis. A feature that can be used as it is only characteristic of apoptotic but not necrotic cells is Annexin V staining. During apoptosis, in addition to cell shrinkage, chromatin condensation, and the formation of apoptotic bodies, phosphatidylserine, which is originally inside the membrane, is translocated to the outside. There is a rapid change in phospholipid symmetry in the cell membrane, a process occurring so rapidly that the barrier function of the cell membrane is initially still present. The cellular protein Annexin V can bind to the displaced phosphatidylserine in the presence of calcium. To test for the presence of the cell membrane barrier, the non-membrane-permeable dye propidium iodide was added, which intercalates into the DNA. The flow cytometric data were divided into four areas (live cells, early and late apoptotic cells, and necrotic cells). Untreated cells were used as controls. The results are depicted in Figure 3. […] Even after 48 h, no significant difference between compound 3 and 5 was detected (55–60% live cells, 8% early apoptotic cells, 28–36% late apoptotic cells, 0.5–3% necrotic cells). […] Since both compounds are sulfonamides of betulin, the similar results are not surprising.

MCF-7 cells [6] = test: Cell cycle analysis, MCF-7; type: cell-based, human; conditions: MCF-7, 72 h, double the IC50 concentration
Protocol: Cell cycle analyses were performed as previously described.
Changes in the genetic material and the resulting mutations, which can affect the formation of tumors, usually occur during the proliferation process in the cell. A human cell passes through all four phases of this cell cycle within 20 h, with the set of its chromosomes varying between single and double. During apoptosis, fragmentation of DNA occurs along with an associated decrease in chromosome content. Fixation of cells with ethanol leads to permeabilization of the cell membrane and thus to loss of smaller DNA fragments, so that apoptotic cells contain less than the single set of chromosomes detected by a SubG1 peak. Given the different amounts of DNA in the cells and the proportional binding of propidium iodide to the DNA, the different fluorescence intensities can be used to infer the distribution of cells in the respective phases of the cell cycle.
The MCF-7 breast cancer cell line was used in the experiments. An untreated sample was also included in the cell cycle analysis as a control. The results are depicted in Figure 4.

[7] = A-375, SRB assay, 96 h incubation, mean ± SD
[8] = Homo sapiens, MDA-MB-231, 168 h, 7 days of treatment, 3 independent experiments
[9] = MCF7, SRB assay, 96 h incubation, mean ± SD
[10] = Homo sapiens, Hs-578T, 168 h, 7 days of treatment, 3 independent experiments
[11] = A2780, SRB assay, 96 h incubation, mean ± SD
[12] = 7 days of treatment, 3 independent experiments

| Compound | IC50 (A375 melanoma cells; [7]) [µM] | IC50 (MDA-MB-231 spheroids; [8]) [µM] | IC50 [1, 9] [µM] | IC50 (Hs578T spheroids; [10]) [µM] | Ki [2] [µM] | IC50 [3, 11] [µM] | melting point [°C] | further results |
| --- | --- | --- | --- | --- | --- | --- | --- | --- |
| NS(=O)(=O)c1nnc(NC(=O)CCC(=O)NCCOCCO)s1 [Compound 8, N-[5-(Aminosulfonyl)-1,3,4-thiadiazol-2-yl]-N’-[2-(2-hydroxyethoxy)-ethyl]-succinamide] | > 100 | > 100 | > 100 | > 100 | 0.146 | > 100 | – | – |
| C=C(C)C1CCC2(COC(=O)CCC(=O)Nc3nnc(S(N)(=O)=O)s3)CCC3(C)C(CCC4C5(C)CCC(OC(C)=O)C(C)(C)C5CCC43C)C12 (stereo not drawn) [Compound 9, (3β)-3-(Acetyloxy)-lup-20(29)-en-28-yl-4-{[5-(aminosulfonyl)-1,3,4-thiadiazol-2-yl]-amino}-4-oxobutanoate] | – | – | – | – | 1.25 ± 0.25 | – | – | IC50 (A375 melanoma cells; A-375, 96 h): 7.2 ± 0.6 µM; IC50 (MDA-MB-231 spheroids; Homo sapiens, MDA-MB-231, 168 h): 8.1 ± 1.4 µM; IC50 ([1]; MCF7, 96 h): 6.2 ± 0.2 µM; IC50 (Hs578T spheroids; Homo sapiens, Hs-578T, 168 h): 28.4 ± 0.3 µM; resistance of Hs578T spheroids versus MDA-MB-231 spheroids (Hs578T spheroids; difference of spheroid IC50 values): only about three-fold differences; IC50 [4]: 6.4 to 30.1 µM; effect on cell survival compared to untreated control (MCF-7 cells [5]; MCF-7, 24 h): no difference; effect on cell viability (Annexin V) (MCF-7 cells [5]; MCF-7, 72 h): comparatively smaller decrease in cell viability; Ki relative to the unconjugated inhibitors ([2]; higher Ki than unconjugated inhibitors): approximately 10 fold; cells in SubG1 phase (MCF-7 cells [6]): 6.5%; IC50 ([3]; A2780, 96 h): 8.7 ± 2 µM |
| C=C(C)C1CCC2(C(=O)NCCOCCO)CCC3(C)C(CCC4C5(C)CCC(OC(C)=O)C(C)(C)C5CCC43C)C12 (stereo not drawn) [Compound 10] | 4.3 ± 0.2 | – | 5.9 ± 0.2 | – | – | 9.5 ± 0.9 | 205 | – |
| C=C(C)C1CCC2(C(=O)NCCOCCOC(=O)CCC(=O)O)CCC3(C)C(CCC4C5(C)CCC(OC(C)=O)C(C)(C)C5CCC43C)C12 (stereo not drawn) [Compound 11] | 10.5 ± 0.6 | – | 7.3 ± 0.4 | – | – | 12.3 ± 1.5 | 78 to 82 | – |
| C=C(C)C1CCC2(C(=O)NCCOCCOC(=O)CCC(=O)Nc3nnc(S(N)(=O)=O)s3)CCC3(C)C(CCC4C5(C)CCC(OC(C)=O)C(C)(C)C5CCC43C)C12 (stereo not drawn) [Compound 12] | > 100 | > 100 | > 100 | > 100 | – | 35.1 ± 3.4 | 92 to 94 | reduction of hCA IX activity ([2]; 10 µM of the compound, p-nitrophenyl acetate): 40%; remaining activity at 10 µM ([2]; read-out: residual activity (r.a.) of hCA IX): 60% |
| NS(=O)(=O)c1ccc(NC(=O)Nc2ccc(F)cc2)cc1 [Compound U-104, reference compound] | – | – | – | – | – | – | – | IC50 (MDA-MB-231 spheroids; [12]): 33.5 ± 7.6 µM; IC50 (Hs578T spheroids; [12]): 83.9 ± 12.4 µM |
